In assay [1] the target is Tyrosine-protein kinase Lyn (Homo sapiens, UniProt P07948). Kind of assay: Selectivity interaction (KinomeScan (DiscoverX)) EUB0000229b LYN. As to conditions: at 10 µM.
Assay [2] concerns the target Serine/threonine-protein kinase pim-3 (Homo sapiens) (UniProt Q86V86). Kind of assay: Selectivity interaction (KinomeScan (DiscoverX)) EUB0000229b PIM3. The following applies: at 10 µM.
For the next assay, the target named is Ephrin type-A receptor 4 (Homo sapiens, UniProt P54764). Kind of assay: Selectivity interaction (KinomeScan (DiscoverX)) EUB0000655a EPHA4. As to conditions: at 10 µM.
Chain of Ephrin type-A receptor 4 (P54764 whole entry): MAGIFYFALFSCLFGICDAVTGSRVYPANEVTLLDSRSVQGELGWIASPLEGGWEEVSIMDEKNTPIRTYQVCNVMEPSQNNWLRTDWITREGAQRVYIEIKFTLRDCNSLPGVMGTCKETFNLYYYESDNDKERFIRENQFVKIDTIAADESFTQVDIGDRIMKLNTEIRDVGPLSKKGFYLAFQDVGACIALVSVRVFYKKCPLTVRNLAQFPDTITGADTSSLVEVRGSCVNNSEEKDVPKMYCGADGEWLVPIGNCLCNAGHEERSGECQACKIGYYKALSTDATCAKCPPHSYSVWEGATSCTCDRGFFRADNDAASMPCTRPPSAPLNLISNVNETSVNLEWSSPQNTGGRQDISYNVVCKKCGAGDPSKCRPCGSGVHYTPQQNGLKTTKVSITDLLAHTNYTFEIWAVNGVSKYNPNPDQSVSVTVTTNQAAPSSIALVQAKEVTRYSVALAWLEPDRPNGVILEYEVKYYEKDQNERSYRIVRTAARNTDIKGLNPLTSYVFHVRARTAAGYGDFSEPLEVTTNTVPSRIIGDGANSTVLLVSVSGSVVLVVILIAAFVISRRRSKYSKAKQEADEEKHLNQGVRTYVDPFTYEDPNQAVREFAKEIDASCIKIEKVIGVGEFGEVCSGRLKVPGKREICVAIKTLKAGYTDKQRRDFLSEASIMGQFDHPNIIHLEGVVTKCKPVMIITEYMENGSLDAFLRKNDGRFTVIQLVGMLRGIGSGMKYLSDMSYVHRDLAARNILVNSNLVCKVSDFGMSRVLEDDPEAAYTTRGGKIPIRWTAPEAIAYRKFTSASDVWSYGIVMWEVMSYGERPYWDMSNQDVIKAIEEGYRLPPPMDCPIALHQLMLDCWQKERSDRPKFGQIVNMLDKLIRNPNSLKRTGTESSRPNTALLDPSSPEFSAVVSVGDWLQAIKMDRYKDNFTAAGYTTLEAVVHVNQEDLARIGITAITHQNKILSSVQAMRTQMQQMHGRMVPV
For assay [3], the target named is MAP kinase-interacting serine/threonine-protein kinase 1 (Homo sapiens) (UniProt Q9BUB5). Nature of the assay: Selectivity interaction (KinomeScan (DiscoverX)) EUB0000655a MKNK1. As to conditions: at 10 µM.
Chain of MAP kinase-interacting serine/threonine-protein kinase 1 (Homo sapiens) (Q9BUB5 whole entry, looked up): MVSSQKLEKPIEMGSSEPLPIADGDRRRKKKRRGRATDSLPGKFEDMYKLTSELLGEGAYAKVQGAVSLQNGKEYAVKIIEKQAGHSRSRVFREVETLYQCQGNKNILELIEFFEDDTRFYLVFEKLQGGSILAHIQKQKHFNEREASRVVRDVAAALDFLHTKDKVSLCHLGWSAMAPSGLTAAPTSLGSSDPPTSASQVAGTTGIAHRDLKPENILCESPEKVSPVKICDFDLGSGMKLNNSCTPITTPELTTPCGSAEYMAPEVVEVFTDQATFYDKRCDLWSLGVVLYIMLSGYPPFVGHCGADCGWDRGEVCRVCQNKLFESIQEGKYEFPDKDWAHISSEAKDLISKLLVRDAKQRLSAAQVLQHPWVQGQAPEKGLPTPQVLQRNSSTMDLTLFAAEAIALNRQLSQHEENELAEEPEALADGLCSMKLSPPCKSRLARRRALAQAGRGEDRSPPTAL
Assay [4] concerns the target T1, Rhodopsin kinase GRK1 (Homo sapiens) (UniProt Q15835).
T1 sequence (whole entry): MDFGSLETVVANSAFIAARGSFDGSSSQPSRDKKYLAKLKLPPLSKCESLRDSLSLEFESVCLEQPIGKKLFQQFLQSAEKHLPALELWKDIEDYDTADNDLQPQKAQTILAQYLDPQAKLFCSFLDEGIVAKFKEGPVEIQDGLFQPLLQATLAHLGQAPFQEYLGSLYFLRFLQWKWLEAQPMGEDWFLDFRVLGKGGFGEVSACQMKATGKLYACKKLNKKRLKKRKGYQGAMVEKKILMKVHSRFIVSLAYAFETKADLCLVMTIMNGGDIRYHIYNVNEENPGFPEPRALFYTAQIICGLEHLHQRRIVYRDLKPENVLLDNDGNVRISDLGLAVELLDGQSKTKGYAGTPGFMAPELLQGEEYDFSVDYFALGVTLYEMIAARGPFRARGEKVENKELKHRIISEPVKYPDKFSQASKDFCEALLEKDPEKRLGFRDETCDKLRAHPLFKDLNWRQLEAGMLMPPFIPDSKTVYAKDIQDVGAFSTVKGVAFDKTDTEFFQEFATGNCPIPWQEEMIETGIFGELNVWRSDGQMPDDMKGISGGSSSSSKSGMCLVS
Kind of assay: Selectivity interaction (KinomeScan (DiscoverX)) EUB0000655a GRK1. As to conditions: at 10 µM.

Assay [5] deals with Homeodomain-interacting protein kinase 1 (Homo sapiens, UniProt Q86Z02). Nature of the assay: Selectivity interaction (KinomeScan (DiscoverX)) EUB0001619a HIPK1. The following applies: at 1 µM.
Chain of Homeodomain-interacting protein kinase 1 (Q86Z02 whole entry, looked up): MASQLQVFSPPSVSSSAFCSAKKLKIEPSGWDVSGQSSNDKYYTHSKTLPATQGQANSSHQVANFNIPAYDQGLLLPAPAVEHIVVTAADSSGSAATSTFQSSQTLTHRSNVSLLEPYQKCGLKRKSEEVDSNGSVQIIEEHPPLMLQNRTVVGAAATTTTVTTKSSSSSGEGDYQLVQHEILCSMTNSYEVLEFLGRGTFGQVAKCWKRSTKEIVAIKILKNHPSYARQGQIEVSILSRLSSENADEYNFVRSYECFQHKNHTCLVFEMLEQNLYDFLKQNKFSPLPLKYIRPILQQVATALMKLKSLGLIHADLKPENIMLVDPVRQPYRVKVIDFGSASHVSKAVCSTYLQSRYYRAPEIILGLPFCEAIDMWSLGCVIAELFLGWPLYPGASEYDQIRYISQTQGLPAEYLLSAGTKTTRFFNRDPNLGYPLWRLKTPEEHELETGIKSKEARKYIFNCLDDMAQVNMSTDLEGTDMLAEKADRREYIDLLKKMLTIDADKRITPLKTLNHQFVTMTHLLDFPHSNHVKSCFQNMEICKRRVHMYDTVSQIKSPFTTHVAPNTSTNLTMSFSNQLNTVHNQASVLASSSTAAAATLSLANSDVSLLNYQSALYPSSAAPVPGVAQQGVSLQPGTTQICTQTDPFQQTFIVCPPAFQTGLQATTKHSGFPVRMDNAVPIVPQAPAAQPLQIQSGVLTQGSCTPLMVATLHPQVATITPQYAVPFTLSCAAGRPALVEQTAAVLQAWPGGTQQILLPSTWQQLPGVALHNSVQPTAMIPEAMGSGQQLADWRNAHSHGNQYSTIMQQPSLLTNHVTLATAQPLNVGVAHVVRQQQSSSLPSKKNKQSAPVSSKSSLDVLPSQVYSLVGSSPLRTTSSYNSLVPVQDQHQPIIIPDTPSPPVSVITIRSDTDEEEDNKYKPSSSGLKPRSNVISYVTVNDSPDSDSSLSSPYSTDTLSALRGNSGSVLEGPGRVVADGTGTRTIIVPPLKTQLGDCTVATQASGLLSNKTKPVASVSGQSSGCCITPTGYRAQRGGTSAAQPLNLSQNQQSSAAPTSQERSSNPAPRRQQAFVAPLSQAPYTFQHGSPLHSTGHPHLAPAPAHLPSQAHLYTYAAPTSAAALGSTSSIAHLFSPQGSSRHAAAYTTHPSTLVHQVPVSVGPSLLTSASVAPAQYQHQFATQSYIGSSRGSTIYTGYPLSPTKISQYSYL
The target of assay [6] is ALK tyrosine kinase receptor (Homo sapiens, UniProt Q9UM73). As to conditions: at 10 µM.
Assay [7] deals with T2, Serine/threonine-protein kinase Sgk2 (Homo sapiens) (UniProt Q9HBY8).
T2 sequence (whole entry): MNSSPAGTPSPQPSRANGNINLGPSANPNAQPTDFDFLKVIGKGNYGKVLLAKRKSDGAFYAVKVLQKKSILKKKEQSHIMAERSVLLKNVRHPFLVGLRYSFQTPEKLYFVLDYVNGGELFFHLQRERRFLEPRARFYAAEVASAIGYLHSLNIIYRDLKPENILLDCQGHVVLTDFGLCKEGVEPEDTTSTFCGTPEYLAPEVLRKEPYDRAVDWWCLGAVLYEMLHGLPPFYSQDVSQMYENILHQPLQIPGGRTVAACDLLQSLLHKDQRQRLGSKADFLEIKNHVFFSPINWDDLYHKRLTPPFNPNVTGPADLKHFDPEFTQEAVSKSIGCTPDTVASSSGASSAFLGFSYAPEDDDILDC
Kind of assay: Selectivity interaction (KinomeScan (DiscoverX)) EUB0000695a SGK2. As to conditions: at 100 nM.

The next assay addresses T3, Peregrin (Homo sapiens) (UniProt P55201).
T3 sequence (whole entry): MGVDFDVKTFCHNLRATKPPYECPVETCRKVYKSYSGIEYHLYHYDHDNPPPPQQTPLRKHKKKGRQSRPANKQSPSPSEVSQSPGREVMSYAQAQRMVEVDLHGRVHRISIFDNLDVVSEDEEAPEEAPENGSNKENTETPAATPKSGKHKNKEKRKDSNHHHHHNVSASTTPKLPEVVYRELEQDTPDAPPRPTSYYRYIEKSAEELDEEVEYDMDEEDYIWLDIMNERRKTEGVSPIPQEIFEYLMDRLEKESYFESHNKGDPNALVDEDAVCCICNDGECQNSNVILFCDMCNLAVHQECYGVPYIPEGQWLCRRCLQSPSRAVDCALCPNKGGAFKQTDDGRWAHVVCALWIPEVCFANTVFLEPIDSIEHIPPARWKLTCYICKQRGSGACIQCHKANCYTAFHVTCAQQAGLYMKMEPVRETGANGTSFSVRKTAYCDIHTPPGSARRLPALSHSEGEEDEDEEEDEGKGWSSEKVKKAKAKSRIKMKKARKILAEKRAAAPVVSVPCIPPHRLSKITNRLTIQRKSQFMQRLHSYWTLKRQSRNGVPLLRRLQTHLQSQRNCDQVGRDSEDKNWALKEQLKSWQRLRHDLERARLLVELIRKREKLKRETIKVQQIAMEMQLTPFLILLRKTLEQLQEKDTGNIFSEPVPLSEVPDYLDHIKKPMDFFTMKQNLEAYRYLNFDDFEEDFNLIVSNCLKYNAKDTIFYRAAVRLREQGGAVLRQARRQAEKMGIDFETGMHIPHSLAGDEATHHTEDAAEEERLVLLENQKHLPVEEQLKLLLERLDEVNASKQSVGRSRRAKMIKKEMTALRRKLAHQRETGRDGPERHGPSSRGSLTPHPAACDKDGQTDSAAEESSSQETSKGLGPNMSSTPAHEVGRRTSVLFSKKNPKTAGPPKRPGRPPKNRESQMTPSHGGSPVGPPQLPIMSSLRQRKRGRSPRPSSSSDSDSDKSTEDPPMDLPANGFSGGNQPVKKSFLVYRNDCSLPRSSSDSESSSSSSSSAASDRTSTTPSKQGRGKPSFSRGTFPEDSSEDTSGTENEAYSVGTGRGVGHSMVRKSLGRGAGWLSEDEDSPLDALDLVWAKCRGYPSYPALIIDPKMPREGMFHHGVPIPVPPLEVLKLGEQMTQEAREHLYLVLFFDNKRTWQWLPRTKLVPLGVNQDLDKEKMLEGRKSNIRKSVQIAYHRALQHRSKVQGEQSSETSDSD
Nature of the assay: Selectivity interaction (Human bromodomain panel (DSF assay)) EUB0000233b BRPF1.

Assay [8] has as its target Tyrosine-protein kinase JAK1 (Homo sapiens, UniProt P23458). Kind of assay: Selectivity interaction (Antiproliferative activity against Tel-kinase transformed Ba/F3 cell line) EUB0000045b JAK1. Type of assay: cell-based. As to conditions: BaF3.

The values below come from ChEMBL document CHEMBL5465560, “Selectivity Literature for EUbOPEN Chemogenomic Library” (2024).

Chain of Tyrosine-protein kinase Lyn (P07948 2-512 limits assumed): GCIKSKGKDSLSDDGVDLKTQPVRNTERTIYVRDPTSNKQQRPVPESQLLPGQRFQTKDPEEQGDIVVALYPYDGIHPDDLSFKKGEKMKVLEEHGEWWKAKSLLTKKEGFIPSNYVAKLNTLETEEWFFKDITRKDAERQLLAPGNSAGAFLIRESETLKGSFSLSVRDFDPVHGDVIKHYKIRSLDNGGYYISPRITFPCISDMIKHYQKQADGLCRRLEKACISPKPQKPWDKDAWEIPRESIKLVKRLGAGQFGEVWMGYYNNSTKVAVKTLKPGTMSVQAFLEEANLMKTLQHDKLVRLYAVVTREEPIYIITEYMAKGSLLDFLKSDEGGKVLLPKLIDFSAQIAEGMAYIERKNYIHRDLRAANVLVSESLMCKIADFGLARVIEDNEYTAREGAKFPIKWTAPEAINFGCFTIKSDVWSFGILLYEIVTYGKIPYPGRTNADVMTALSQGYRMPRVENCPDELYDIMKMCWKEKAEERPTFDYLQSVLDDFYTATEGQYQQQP
Chain of Tyrosine-protein kinase JAK1 (P23458 whole entry): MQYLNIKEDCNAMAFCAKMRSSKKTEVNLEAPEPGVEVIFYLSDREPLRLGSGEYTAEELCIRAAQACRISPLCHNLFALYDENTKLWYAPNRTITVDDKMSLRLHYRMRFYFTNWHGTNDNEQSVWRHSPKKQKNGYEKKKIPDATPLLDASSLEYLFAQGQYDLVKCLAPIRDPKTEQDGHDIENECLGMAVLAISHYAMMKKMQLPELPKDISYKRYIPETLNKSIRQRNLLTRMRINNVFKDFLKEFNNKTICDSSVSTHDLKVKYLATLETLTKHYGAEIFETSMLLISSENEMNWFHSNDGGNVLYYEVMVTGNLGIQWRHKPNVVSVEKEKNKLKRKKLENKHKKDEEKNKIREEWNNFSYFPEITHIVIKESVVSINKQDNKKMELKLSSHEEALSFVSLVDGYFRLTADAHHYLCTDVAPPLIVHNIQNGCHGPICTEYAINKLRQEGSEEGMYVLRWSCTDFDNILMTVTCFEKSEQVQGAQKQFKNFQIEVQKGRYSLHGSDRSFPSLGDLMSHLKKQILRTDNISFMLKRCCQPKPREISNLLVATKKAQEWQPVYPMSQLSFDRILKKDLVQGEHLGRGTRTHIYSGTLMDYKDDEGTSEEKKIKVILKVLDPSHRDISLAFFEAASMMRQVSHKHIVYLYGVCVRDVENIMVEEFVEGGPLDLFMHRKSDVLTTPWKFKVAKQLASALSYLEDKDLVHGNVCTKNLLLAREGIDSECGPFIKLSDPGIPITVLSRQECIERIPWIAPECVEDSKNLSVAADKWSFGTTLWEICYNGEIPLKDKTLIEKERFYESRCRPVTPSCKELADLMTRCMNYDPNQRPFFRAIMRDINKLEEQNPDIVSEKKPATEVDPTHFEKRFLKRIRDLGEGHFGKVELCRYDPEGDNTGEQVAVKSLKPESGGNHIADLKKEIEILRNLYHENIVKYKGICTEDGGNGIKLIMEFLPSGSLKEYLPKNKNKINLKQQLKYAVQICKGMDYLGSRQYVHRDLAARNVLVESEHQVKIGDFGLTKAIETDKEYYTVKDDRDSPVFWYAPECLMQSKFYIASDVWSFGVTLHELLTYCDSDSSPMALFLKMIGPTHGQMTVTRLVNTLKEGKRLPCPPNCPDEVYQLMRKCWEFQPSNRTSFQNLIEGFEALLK

On to `COc1cc(N(C)c2ccnc3ccc(C(F)(F)F)cc23)cc(OC)c1OC`, for which the % binding in [1] came to 96%; in assay [2] it was 78%. In the case of `CN(C)CCOc1ccc(-c2nc(-c3ccncc3)c(-c3ccc4c(c3)CC/C4=N\O)[nH]2)cc1`, the % of control at Ephrin type-A receptor 4 came out at 100%; in assay [3] it was 81%; in [4] it was 91%. As to `N#Cc1cccc(-c2c[nH]c3ncnc(N4CCOCC4)c23)c1`, in assay [5], the % of control is 77%. `CCN(CC)CCCCNc1ncc2cc(-c3cc(OC)cc(OC)c3)c(NC(=O)NC(C)(C)C)nc2n1` came in with a % of control in assay [6] of 100%. In assay [7], `Cc1cc(F)c(C(=O)Nc2cccc(-c3nncn3C(C)C)n2)cc1-n1cnc(C2CC2)c1` displayed a % of control of 100%. Turning to `CN(C)CCCOc1ccc(-c2cc(NCCCn3cccn3)nc(S(C)(=O)=O)n2)cc1`, on Peregrin (Homo sapiens), the dTM was < 2 K. Molecule `C=CC(=O)Nc1cc(-n2c(=O)ccc3cnc4ccc(-c5ccc(NS(C)(=O)=O)cc5)cc4c32)ccc1C` displayed a GIC50 in assay [8] of 4.92 µM.
